Square brackets hold non-standard residues; d marks the D form. Peptide text beside a SMILES is read from it. MeBmt = C/C=C/C[C@@H](C)[C@@H](O)[C@H](NC)C(=O)O; NEtVal = CCN[C@H](C(=O)O)C(C)C; NMeL = CN[C@@H](CC(C)C)C(=O)O; NMeV = CN[C@H](C(=O)O)C(C)C; dHiv = CC(C)[C@@H](O)C(=O)O; dNMeA = CN[C@H](C)C(=O)O; Abu = CC[C@H](N)C(=O)O
Columns and labels:
Test in all cases: microbe, parasite or virus in culture
[1] = tested on: Human immunodeficiency virus 1; details: Human immunodeficiency virus 1, 3B, MT4, 96 h
Description: Antiviral activity against HIV1 3B infected in human MT4 cells coinfected with HTLV1 assessed as reduction in virus-induced cytopathogenicity after 4 days by MTT assay

[2] = tested on: Human immunodeficiency virus 1; details: Human immunodeficiency virus 1, 3B, CEM-SS, 144 h
Description: Antiviral activity against HIV1 3B infected in human CEM-SS cells assessed as reduction in virus-induced cytopathogenicity after 6 days by MTS assay

[3] = tested on: Human immunodeficiency virus 1; details: Human immunodeficiency virus 1, LAI, CEM-4
Description: Antiviral activity against HIV1 LAI infected in human CEM4 cells assessed as inhibition of viral replication

[4] = tested on: Hepatitis C virus; details: Huh-7
Description: Antiviral activity against Hepatitis C virus infected in human Huh7ET cells by luciferase reporter gene assay

[5] = tested on: Hepatitis C virus; details: Huh-7; remark: listed apart in the source
Description: Antiviral activity against Hepatitis C virus infected in human HuH7 cells by luciferase reporter gene assay

[6] = tested on: Hepatitis C virus; details: Huh-7, 72 h
Description: Antiviral activity against Hepatitis C virus infected in human Huh7ET cells after 72 hrs by luciferase reporter gene assay

[7] = tested on: Hepatitis C virus
Description: Antiviral activity against Hepatitis C virus

[8] = tested on: Hepatitis C virus; details: 16 h
Description: Antiviral activity against Hepatitis C virus after 16 hrs by cell-based assay

[9] = tested on: Hepatitis C virus; details: genotype 2b
Description: Antiviral activity against Hepatitis C virus genotype 2b infected in human Huh-9-13 cells after overnight incubation by MTT assay

[10] = tested on: Human immunodeficiency virus 1; details: Human immunodeficiency virus 1, 3B, MT4
Description: Antiviral activity against HIV1 3B infected in human MT4 cells assessed as reduction in virus-induced cytopathogenicity after 5 to 6 days by MTT assay

[11] = tested on: Hepatitis C virus; details: Huh-5-2, 72 h
Description: Antiviral activity against Hepatitis C virus infected in human HuH5.2 cells after 72 hrs by luciferase reporter gene assay

SMILES: C/C=C/C[C@@H](C)[C@@H](O)[C@H]1C(=O)N[C@@H](CC)C(=O)N(C)CC(=O)N(C)[C@@H](CC(C)(C)O)C(=O)N[C@@H](C(C)C)C(=O)N(C)[C@@H](CC(C)C)C(=O)N[C@@H](C)C(=O)N[C@H](C)C(=O)N(C)[C@@H](CC(C)C)C(=O)N(C)[C@@H](CC(C)C)C(=O)N(C)[C@@H](C(C)C)C(=O)N1C
- EC50 [1]: 279 nM

SMILES: C/C=C/C[C@@H](C)[C@@H](O)[C@H]1C(=O)N[C@@H](CC)C(=O)N(C)CC(=O)N(C)[C@@H](C(C)C)C(=O)N[C@@H](C(C)C)C(=O)N(C)[C@@H](CC(C)C)C(=O)N[C@@H](C)C(=O)N[C@H](C)C(=O)N(C)[C@@H](CC(C)C)C(=O)N(C)[C@@H](CC(C)C)C(=O)N(C)[C@@H](C(C)C)C(=O)N1C
- EC50 [1]: 54 nM

SMILES: C/C=C/C[C@@H](C)[C@@H](O)[C@H]1C(=O)N[C@@H](CC)C(=O)N(C)C(OC(C)=O)C(=O)N(C)[C@@H](CC(C)C)C(=O)N[C@@H](C(C)C)C(=O)N(C)[C@@H](CC(C)C)C(=O)N[C@@H](C)C(=O)N[C@H](C)C(=O)N(C)[C@@H](CC(C)C)C(=O)N(C)[C@@H](CC(C)C)C(=O)N(C)[C@@H](C(C)C)C(=O)N1C (stereo partly specified)
- IC50 [2]: 119 nM

SMILES: C/C=C/C[C@@H](C)[C@@H](OC(C)=O)[C@H]1C(=O)N[C@@H](CC)C(=O)N(C)C(OC(C)=O)C(=O)N(C)[C@@H](CC(C)C)C(=O)N[C@@H](C(C)C)C(=O)N(C)[C@@H](CC(C)C)C(=O)N[C@@H](C)C(=O)N[C@H](C)C(=O)N(C)[C@@H](CC(C)C)C(=O)N(C)[C@@H](CC(C)C)C(=O)N(C)[C@@H](C(C)C)C(=O)N1C (stereo partly specified)
- IC50 [2]: 115 nM

SMILES: CC[C@@H]1NC(=O)[C@H]([C@H](O)[C@H](C)C/C=C/CO)N(C)C(=O)[C@H](C(C)C)N(C)C(=O)[C@H](CC(C)C)N(C)C(=O)[C@H](CC(C)C)N(C)C(=O)[C@@H](C)NC(=O)[C@H](C)NC(=O)[C@H](CC(C)C)N(C)C(=O)[C@H](C(C)C)NC(=O)[C@H](CC(C)C)N(C)C(=O)CN(C)C1=O
- EC50 [1]: 460 nM

SMILES: C/C=C/C[C@@H](C)[C@@H](O)[C@H]1C(=O)N[C@@H](CC)C(=O)N(C)[C@H](SCCN(CC)CC)C(=O)N(C)[C@@H](CC(C)C)C(=O)N[C@@H](C(C)C)C(=O)N(C)[C@@H](CC(C)C)C(=O)N[C@@H](C)C(=O)N[C@H](C)C(=O)N(C)[C@@H](CC(C)C)C(=O)N(C)[C@@H](CC(C)C)C(=O)N(C)[C@@H](C(C)C)C(=O)N1C
- EC50 [3]: 2.5 nM

SMILES: C/C=C/C[C@@H](C)[C@@H](O)[C@H]1C(=O)N[C@@H](CC)C(=O)N(C)[C@@H](CSCCN2CCOCC2)C(=O)N(C)[C@@H](CC(C)(C)O)C(=O)N[C@@H](C(C)C)C(=O)N(C)[C@@H](CC(C)C)C(=O)N[C@@H](C)C(=O)N[C@H](C)C(=O)N(C)[C@@H](CC(C)C)C(=O)N(C)[C@@H](CC(C)C)C(=O)N(C)[C@@H](C(C)C)C(=O)N1C
- EC50 [2]: 94.9 nM

SMILES: C/C=C/C[C@@H](C)[C@@H](O)[C@H]1C(=O)N[C@@H](CC)C(=O)N(C)[C@H](OC)C(=O)N(C)[C@@H](CC(C)(C)O)C(=O)N[C@@H](C(C)C)C(=O)N(C)[C@@H](CC(C)C)C(=O)N[C@@H](C)C(=O)N[C@H](C)C(=O)N(C)[C@@H](CC(C)C)C(=O)N(C)[C@@H](CC(C)C)C(=O)N(C)[C@@H](C(C)C)C(=O)N1C
- EC50 [2]: 60 nM

SMILES: C/C=C/C[C@@H](C)[C@@H](O)[C@H]1C(=O)N[C@@H](CC)C(=O)N(C)CC(=O)N(C)[C@@H](CC(C)C)C(=O)N[C@@H](C(C)C)C(=O)N(C)[C@@H](CC(C)C)C(=O)N[C@@H](C)C(=O)N[C@H](C)C(=O)N(C)[C@@H](CC(C)(C)O)C(=O)N(C)[C@@H](CC(C)C)C(=O)N(C)[C@@H](C(C)C)C(=O)N1C
- EC50 [1]: 255 nM

SMILES: C/C=C/C[C@@H](C)[C@@H](O)[C@H]1C(=O)N[C@@H](CC)C(=O)N(C)[C@H](SCCCN2CCOCC2)C(=O)N(C)[C@@H](CC(C)(C)O)C(=O)N[C@@H](C(C)C)C(=O)N(C)[C@@H](CC(C)C)C(=O)N[C@@H](C)C(=O)N[C@H](C)C(=O)N(C)[C@@H](CC(C)C)C(=O)N(C)[C@@H](CC(C)C)C(=O)N(C)[C@@H](C(C)C)C(=O)N1C
- EC50 [4]: 40 nM

SMILES: C/C=C/C[C@@H](C)[C@@H](O)[C@H]1C(=O)N[C@@H](CC)C(=O)N(C)[C@@H](CSCCCN2CCOCC2)C(=O)N(C)[C@@H](CC(C)(C)O)C(=O)N[C@@H](C(C)C)C(=O)N(C)[C@@H](CC(C)C)C(=O)N[C@@H](C)C(=O)N[C@H](C)C(=O)N(C)[C@@H](CC(C)C)C(=O)N(C)[C@@H](CC(C)C)C(=O)N(C)[C@@H](C(C)C)C(=O)N1C
- EC50 [5]: 20 nM

SMILES: C/C=C/C[C@@H](C)[C@@H](O)[C@H]1C(=O)N[C@@H](CC)C(=O)N(C)CC(=O)N(C)[C@@H](CC(C)(C)OCc2ccccc2)C(=O)N[C@@H](C(C)C)C(=O)N(C)[C@@H](CC(C)C)C(=O)N[C@@H](C)C(=O)N[C@H](C)C(=O)N(C)[C@@H](CC(C)C)C(=O)N(C)[C@@H](CC(C)C)C(=O)N(C)[C@@H](C(C)C)C(=O)N1C
- EC50 [6]: 410 nM

SMILES: C/C=C/C[C@@H](C)[C@@H](O)[C@H]1C(=O)N[C@@H](CC)C(=O)N[C@H](C)C(=O)N(C)[C@@H](CC(C)C)C(=O)N(C/C=C(\C)CO)[C@@H](C(C)C)C(=O)N(C)[C@@H](CC(C)C)C(=O)N[C@@H](C)C(=O)N[C@H](C)C(=O)N(C)[C@@H](CC(C)C)C(=O)N(C)[C@@H](CC(C)C)C(=O)N(C)[C@@H](C(C)C)C(=O)N1C
- EC50 [7]: 50 nM

SMILES: C/C=C/C[C@@H](C)[C@@H](O)[C@H]1C(=O)N[C@@H]([C@@H](C)O)C(=O)N(C)CC(=O)N(C)[C@@H](CC(C)C)C(=O)N[C@@H](C(C)C)C(=O)N(C)[C@@H](CC(C)C)C(=O)N[C@@H](C)C(=O)N[C@H](C)C(=O)N(C)[C@@H](CC(C)CO)C(=O)N(C)[C@@H](CC(C)C)C(=O)N(C)[C@@H](C(C)C)C(=O)N1C (stereo partly specified)
- EC50 [8]: < 3000 nM

SMILES: C/C=C/C[C@@H](C)[C@@H](O)[C@H]1C(=O)N[C@@H](CC)C(=O)N(C)[C@H](C)C(=O)N(CC)[C@@H](C(C)C)C(=O)N[C@@H](CC(C)C)C(=O)N(C)[C@@H](CC(C)C)C(=O)N[C@@H](C)C(=O)O[C@H](C(C)C)C(=O)N(C)[C@@H](CC(C)C)C(=O)N[C@@H](CC(C)C)C(=O)N(C)[C@@H](C(C)C)C(=O)N1C (cyclo(A[dHiv][NMeL]L[NMeV][MeBmt][Abu][dNMeA][NEtVal]L[NMeL]))
- EC50 [9]: 37 nM

SMILES: C/C=C/C[C@@H](C)[C@@H](O)[C@H]1C(=O)N[C@@H](CC)C(=O)N(C)[C@H](C)C(=O)N(CC)[C@@H](C(C)C)C(=O)N[C@@H](C(C)C)C(=O)N(C)[C@@H](CC(C)C)C(=O)N[C@@H](C)C(=O)N[C@H](C)C(=O)N(C)[C@@H](CC(C)C)C(=O)N(C)[C@@H](CC(C)C)C(=O)N(C)[C@@H](C(C)C)C(=O)N1C [ALISPORIVIR]
- EC50 [10]: 63 nM
- EC50 [11]: 25 nM

SMILES: C/C=C/C[C@@H](C)[C@@H](O)[C@H]1C(=O)N[C@@H](CC)C(=O)N(C)CC(=O)N(C)[C@@H](CC(C)C)C(=O)N[C@@H](C(C)C)C(=O)N(C)[C@@H](CC(C)C)C(=O)N[C@@H](C)C(=O)N[C@H](C)C(=O)N(C)[C@@H](CC(C)C)C(=O)N(C)[C@@H](CC(C)C)C(=O)N(C)[C@@H](C(C)C)C(=O)N1C [CYCLOSPORINE]
- EC50 [7]: 230 nM
- EC50 [1]: 450 nM

SMILES: C/C=C/C[C@@H](C)[C@@H](O)[C@H]1C(=O)N[C@@H](CC)C(=O)N(C)CC(=O)N(C)[C@@H]([C@@H](C)CC)C(=O)N[C@@H](C(C)C)C(=O)N(C)[C@@H](CC(C)C)C(=O)N[C@@H](C)C(=O)N[C@H](C)C(=O)N(C)[C@@H](CC(C)C)C(=O)N(C)[C@@H](CC(C)C)C(=O)N(C)[C@@H](C(C)C)C(=O)N1C [NIM811]
- EC50 [1]: 47 nM

SMILES: C/C=C/C[C@@H](C)[C@@H](O)[C@H]1C(=O)N[C@@H](CC)C(=O)N(C)[C@H](SCCN(C)C)C(=O)N(C)[C@@H](CC(C)(C)O)C(=O)N[C@@H](C(C)C)C(=O)N(C)[C@@H](CC(C)C)C(=O)N[C@@H](C)C(=O)N[C@H](C)C(=O)N(C)[C@@H](CC(C)C)C(=O)N(C)[C@@H](CC(C)C)C(=O)N(C)[C@@H](C(C)C)C(=O)N1C [SCY 635]
- EC50 [3]: 45 nM

Source: ChEMBL document CHEMBL2407038, “Cyclophilin inhibitors as antiviral agents” (Bioorg Med Chem Lett, 2013)
